Assay [1] deals with Mus musculus. The experiment in a line: Anticonvulsant effect in ICR mouse assessed as mortality protection against pentylenetetrazole-induced seizures at 1.0 mg/kg, ip relative to control. It is filed as functional, organism-based. Also noted: dose 1 mg/kg.
In assay [2] the test system is Mus musculus. The experiment in a line: Anxiolytic activity of ICR mouse assessed as increase in time spent in open arms at 1.0 mg/kg, ip by EPM test relative to control. It is filed as functional, organism-based. Also noted: dose 1 mg/kg.
The subject of assay [3] is Mus musculus. Nature of the assay: Anxiolytic activity of ICR mouse at 10 mg/kg, ip by EPM test relative to control. It counts as functional, organism-based. Also noted: dose 10 mg/kg.
In assay [4] the test system is Mus musculus. Nature of the assay: Anticonvulsant effect in ICR mouse assessed as mortality protection against pentylenetetrazole-induced seizures at 40 mg/kg, ip relative to control. It is filed as functional. The conditions noted are these: route intraperitoneal.
Assay [5] relates to Ileum. Nature of the assay: Relaxation of spontaneous contractions of isolated rat ileum at 250 ug/mL relative to control. It counts as functional.
Assay [6] has as its system Ileum. Nature of the assay: Relaxation of spontaneous contractions of isolated rat ileum relative to control. It counts as functional, tissue-based.
Assay [7] has as its system Mus musculus. The experiment in a line: Anticonvulsant effect in ICR mouse assessed as mortality protection against pentylenetetrazole-induced seizures at 10 mg/kg, ip relative to control. As to conditions: route intraperitoneal. It counts as functional.
The test system of assay [8] is Mus musculus. Nature of the assay: Antidepressant activity in ICR mouse assessed as diminution of immobility time at 10 mg/kg, ip by forced swimming test relative to control. It counts as functional, organism-based. Also noted: dose 10 mg/kg.

Activity calls are given as the source filed them. No cut-off for these calls is given here.

Consider `CN1C(=O)CN=C(c2ccccc2)c2cc(Cl)ccc21`, for which the outcome in the assay with Mus musculus [1] and with Mus musculus [2] was Active.
For the compound `C/C=C(\C)C(=O)O[C@H]1[C@H](O)[C@@H](O)[C@H](O[C@@H]2[C@H]3OC(=O)CCCCCCCCCC(CCCCC)O[C@@H]4O[C@H](C)[C@@H](O)[C@H](O)[C@H]4O[C@@H]4O[C@H](CO)[C@@H](O)[C@H](O)[C@H]4O[C@H](O[C@H]2C)[C@@H]3OC(=O)C(C)CC)O[C@@H]1C` (some centres undefined) [SCAMMONIN 1], the result in the assay with Mus musculus [3] was inactive. Moreover, the Activity in the assay on Mus musculus [4] is listed as 100%. In the assay with Ileum [5], this compound gave an Emax at 250 µg/mL of 55.1%. In addition, the outcome in the assay with Ileum [6] was Active.
As to `CCCCCC1CCCCCCCCCC(=O)O[C@@H]2[C@@H](O[C@@H]3O[C@H](C)[C@@H](O)[C@H](O)[C@H]3O)[C@H](C)O[C@@H](O[C@H]3[C@H](O[C@H]4[C@H](O1)O[C@H](C)[C@@H](O)[C@@H]4O)O[C@H](CO)[C@@H](O)[C@@H]3O)[C@@H]2OC(=O)C(C)CC` (some centres undefined) [SCAMMONIN 2], the result in the assay with Mus musculus [3] was inactive. For the same compound, the Activity in the assay on Mus musculus [4] was 66%.
Turning to `CCCCCC1CCCCCCCCCC(=O)O[C@@H]2[C@@H](O[C@@H]3O[C@H](C)[C@@H](OC(=O)C(C)CC)[C@H](O)[C@H]3O)[C@H](C)O[C@@H](O[C@H]3[C@H](O[C@H]4[C@H](O1)O[C@H](C)[C@@H](O)[C@@H]4O)O[C@H](CO)[C@@H](O)[C@@H]3O)[C@@H]2OC(=O)CCC` (some centres undefined) [TYRIANTHIN 6], the Activity in the assay with Mus musculus [7] is 33.33%; in the assay on Mus musculus [4] it was 88%. Further, the outcome in the assay on Mus musculus [8] and in the assay on Ileum [6] was Active. Moreover, in the assay with Mus musculus [3], the outcome was inactive. In addition, the Emax at 250 µg/mL with Ileum [5] is 59.1%.

These data come from ChEMBL document CHEMBL1142106, “Resin glycosides from the roots of Ipomoea tyrianthina and their biological activity” (2007).
